# Experimental data reported in patent publication US8129371B2, “Thienopyrimidine and pyrazolopyrimidine compounds and their use as mTOR kinase and PI3 kinase inhibitors” (Wyeth LLC, priority 2007, dated 2012).
# Read-outs that look alike come from different tables or passages of the source.
# Key:
# breast line MDA468 = experiment: In vitro cell culture growth assay (MTS), MDA468; type: cell-based; conditions: Homo sapiens, 72 h, MDA468 cells, three days after drug treatment
# Outline: (§1)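 Cells were plated and, one day later, treated with inhibitors. Three days after treatment, viable cell density was measured by MTS dye conversion, read as absorbance at 490 nm. Effects are expressed as percent of control growth versus vehicle-treated cells on the same plate.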
# Human mTOR (FLAG-TOR) = target: T1, Human mTOR (FLAG-TOR) (Homo sapiens, UniProt P42345); experiment: Human mTOR kinase assay with purified enzyme, DELFIA format; type: biochemical
# T1 construct: FLAG
# Outline: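 DELFIA readout: Eu-anti-P(T389)-S6K antibody (40 ng/mL, 1 h) on captured His6-S6K from the stopped reaction. Kinase step used purified FLAG-tagged human mTOR with test compound in HEPES (pH 7.4)/MnCl2/DTT buffer, 2 h at room temperature (linear 1–6 h), terminated by EDTA/EGTA.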
# PI3K [1] = target: T2, PI3K (Homo sapiens, UniProt P48736); experiment: Fluorescence polarization assay for PI3K; type: biochemical
# T2 construct: PI3 Kinase γ IC50; other: PI3 Kinase γ; other: PI3 Kinase γ isoform, fluorescence polarization
# T2 sequence (P48736 whole entry, canonical isoform): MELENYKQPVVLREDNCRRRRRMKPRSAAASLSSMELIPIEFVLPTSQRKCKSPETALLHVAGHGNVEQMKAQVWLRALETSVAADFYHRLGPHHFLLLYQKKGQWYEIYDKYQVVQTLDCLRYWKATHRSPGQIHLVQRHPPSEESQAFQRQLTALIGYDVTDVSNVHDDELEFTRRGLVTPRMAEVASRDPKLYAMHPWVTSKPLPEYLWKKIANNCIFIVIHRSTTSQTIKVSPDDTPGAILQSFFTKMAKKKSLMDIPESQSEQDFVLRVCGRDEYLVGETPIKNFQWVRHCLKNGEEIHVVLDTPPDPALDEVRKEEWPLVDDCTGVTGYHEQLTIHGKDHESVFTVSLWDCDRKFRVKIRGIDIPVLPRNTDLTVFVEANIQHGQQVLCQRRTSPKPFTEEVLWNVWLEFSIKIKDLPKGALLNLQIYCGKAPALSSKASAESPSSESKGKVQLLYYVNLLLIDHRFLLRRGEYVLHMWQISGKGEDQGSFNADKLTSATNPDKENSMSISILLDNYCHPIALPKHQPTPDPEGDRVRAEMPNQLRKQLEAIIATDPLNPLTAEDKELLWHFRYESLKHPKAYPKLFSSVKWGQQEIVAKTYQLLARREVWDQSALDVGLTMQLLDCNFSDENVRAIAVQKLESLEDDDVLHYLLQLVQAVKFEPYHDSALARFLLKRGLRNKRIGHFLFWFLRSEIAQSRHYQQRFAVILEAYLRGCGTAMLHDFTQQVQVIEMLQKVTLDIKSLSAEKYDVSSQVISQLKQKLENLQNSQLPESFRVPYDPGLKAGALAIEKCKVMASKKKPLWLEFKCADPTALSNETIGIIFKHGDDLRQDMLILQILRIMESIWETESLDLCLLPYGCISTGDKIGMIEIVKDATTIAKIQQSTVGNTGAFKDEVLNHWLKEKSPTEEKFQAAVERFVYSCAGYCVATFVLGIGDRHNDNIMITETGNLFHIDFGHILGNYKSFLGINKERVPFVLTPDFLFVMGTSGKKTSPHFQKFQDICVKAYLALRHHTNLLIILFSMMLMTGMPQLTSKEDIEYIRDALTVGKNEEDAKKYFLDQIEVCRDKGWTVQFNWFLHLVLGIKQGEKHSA
# Outline: (§2)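 Fluorescence-polarization competition readout: after 30–60 min of PIP2/ATP turnover in 1% DMSO, a stop mix with GST-GRP (70 nM) and red probe (10 nM) was added.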
# PI3K [2] = target: T3, PI3K (Homo sapiens, UniProt P42336); experiment: Fluorescence polarization assay for PI3K; type: biochemical
# T3 construct: PI3 Kinase α IC50; other: PI3 Kinase α; other: PI3 Kinase α isoform, fluorescence polarization
# T3 sequence (P42336 whole entry, canonical isoform): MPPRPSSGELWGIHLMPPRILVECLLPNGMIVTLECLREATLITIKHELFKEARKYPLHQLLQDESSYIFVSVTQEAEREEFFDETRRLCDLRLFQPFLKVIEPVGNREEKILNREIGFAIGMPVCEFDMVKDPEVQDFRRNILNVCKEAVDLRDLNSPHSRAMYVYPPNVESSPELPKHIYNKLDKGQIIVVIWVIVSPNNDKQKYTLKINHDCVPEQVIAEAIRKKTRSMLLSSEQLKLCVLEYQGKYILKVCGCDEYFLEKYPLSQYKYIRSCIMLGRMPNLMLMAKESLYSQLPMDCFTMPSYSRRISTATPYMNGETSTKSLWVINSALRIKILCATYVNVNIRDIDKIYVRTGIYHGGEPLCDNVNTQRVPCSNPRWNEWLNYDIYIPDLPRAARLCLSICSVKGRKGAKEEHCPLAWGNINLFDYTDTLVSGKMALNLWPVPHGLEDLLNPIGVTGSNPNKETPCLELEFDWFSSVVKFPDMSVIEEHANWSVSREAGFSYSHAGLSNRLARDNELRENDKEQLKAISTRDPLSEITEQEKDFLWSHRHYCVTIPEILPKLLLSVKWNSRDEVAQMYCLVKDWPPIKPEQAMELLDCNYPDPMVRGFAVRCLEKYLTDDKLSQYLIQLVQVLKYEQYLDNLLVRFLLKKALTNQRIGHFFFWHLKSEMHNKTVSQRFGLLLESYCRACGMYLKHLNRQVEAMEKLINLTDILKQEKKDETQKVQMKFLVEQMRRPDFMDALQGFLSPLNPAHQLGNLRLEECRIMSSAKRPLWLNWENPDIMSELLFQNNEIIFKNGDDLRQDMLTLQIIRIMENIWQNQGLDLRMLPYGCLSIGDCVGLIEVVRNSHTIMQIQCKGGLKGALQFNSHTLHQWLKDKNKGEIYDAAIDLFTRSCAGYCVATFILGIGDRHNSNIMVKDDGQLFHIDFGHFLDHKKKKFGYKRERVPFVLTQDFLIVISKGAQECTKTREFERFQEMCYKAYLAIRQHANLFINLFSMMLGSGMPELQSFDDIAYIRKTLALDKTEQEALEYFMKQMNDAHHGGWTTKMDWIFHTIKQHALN
# Outline: as §2
# prostate line LNCap = experiment: In vitro cell culture growth assay (MTS), LNCap; type: cell-based; conditions: Homo sapiens, 72 h, LNCap cells, three days after drug treatment
# Outline: as §1
# [3] = PI3 Kinase γ, read-out: PI3 Kinase γ IC50
# [4] = PI3 Kinase α, read-out: PI3 Kinase α IC50
Compound,IC50 (Human mTOR (FLAG-TOR)),IC50 (PI3K [1]; [3]),IC50 (PI3K [2]; [4]),IC50 (prostate line LNCap; LNCaP),IC50 (breast line MDA468),IC50 (PI3K [1]),IC50 (PI3K [2]),IC50 (prostate line LNCap)
"O=C(Nc1ccc(-c2nc(N3CC4CCC(C3)O4)c3cnn(CCF)c3n2)cc1)OCCO [Example 245, 2-hydroxyethyl {4-[1-(2-fluoroethyl)-4-(8-oxa-3-azabicyclo[3.2.1]oct-3-yl)-1H-pyrazolo[3,4-d]pyrimidin-6-yl]phenyl}carbamate]",1.2 nM,> 10000 nM,2900 nM,130 nM,900 nM,,,
"CN1CCN(c2ccc(NC(=O)Nc3ccc(-c4nc(N5CC6CCC(C5)O6)c5cnn(CCF)c5n4)cc3)cc2)CC1 [Example 246, 1-{4-[1-(2-fluoroethyl)-4-(8-oxa-3-azabicyclo[3.2.1]oct-3-yl)-1H-pyrazolo[3,4-d]pyrimidin-6-yl]phenyl}-3-[4-(4-methylpiperazin-1-yl)phenyl]urea]",0.698 nM,1560 nM,96 nM,< 1 nM,7 nM,,,
"CCNC(=O)Nc1ccc(-c2nc(N3CC4CCC(C3)O4)c3cnn(CCF)c3n2)cc1 [Example 247, 1-ethyl-3-{4-[1-(2-fluoroethyl)-4-(8-oxa-3-azabicyclo[3.2.1]oct-3-yl)-1H-pyrazolo[3,4-d]pyrimidin-6-yl]phenyl}urea]",0.7 nM,> 10000 nM,1360 nM,90 nM,400 nM,,,
"O=C(Nc1ccc(-c2nc(N3CC4CCC(C3)O4)c3cnn(CCF)c3n2)cc1)NC1CC1 [Example 248, 1-cyclopropyl-3-{4-[1-(2-fluoroethyl)-4-(8-oxa-3-azabicyclo[3.2.1]oct-3-yl)-1H-pyrazolo[3,4-d]pyrimidin-6-yl]phenyl}urea]",0.765 nM,> 10000 nM,1820 nM,90 nM,500 nM,,,
"O=C(Nc1ccncc1)Nc1ccc(-c2nc(N3CC4CCC(C3)O4)c3cnn(CCF)c3n2)cc1 [Example 249, 1-{4-[1-(2-fluoroethyl)-4-(8-oxa-3-azabicyclo[3.2.1]oct-3-yl)-1H-pyrazolo[3,4-d]pyrimidin-6-yl]phenyl}-3-pyridin-4-ylurea]",0.185 nM,1200 nM,102 nM,< 1 nM,8 nM,,,
"O=C(Nc1ccc(CO)cc1)Nc1ccc(-c2nc(N3CC4CCC(C3)O4)c3cnn(CCF)c3n2)cc1 [Example 250, 1-{4-[1-(2-fluoroethyl)-4-(8-oxa-3-azabicyclo[3.2.1]oct-3-yl)-1H-pyrazolo[3,4-d]pyrimidin-6-yl]phenyl}-3-[4-(hydroxymethyl)phenyl]urea]",0.086 nM,952 nM,34 nM,< 1 nM,4 nM,,,
"O=C(Nc1ccc(-c2nc(N3CC4CCC(C3)O4)c3cnn(CC(F)(F)F)c3n2)cc1)Nc1ccc(N2CCOCC2)nc1 [Example 252, 1-(6-morpholin-4-ylpyridin-3-yl)-3-{4-[4-(8-oxa-3-azabicyclo[3.2.1]oct-3-yl)-1-(2,2,2-trifluoroethyl)-1H-pyrazolo[3,4-d]pyrimidin-6-yl]phenyl}urea]",0.465 nM,> 10000 nM,9500 nM,1 nM,8 nM,,,
"CN(C)c1cccc(OC(=O)Nc2ccc(-c3nc(N4CC5CCC(C4)O5)c4cnn(CC(F)(F)F)c4n3)cc2)c1 [Example 256, 3-(dimethylamino)phenyl {4-[4-(8-oxa-3-azabicyclo[3.2.1]oct-3-yl)-1-(2,2,2-trifluoroethyl)-1H-pyrazolo[3,4-d]pyrimidin-6-yl]phenyl}carbamate]",195 nM,,,,18000 nM,> 10000 nM,> 10000 nM,3500 nM
"CN1CCN(c2ccc(NC(=O)Nc3ccc(-c4nc(N5CC6CCC(C5)O6)c5cnn(CC(F)(F)F)c5n4)cc3)cn2)CC1 [Example 262, 1-[6-(4-methylpiperazin-1-yl)pyridin-3-yl]-3-{4-[4-(8-oxa-3-azabicyclo[3.2.1]oct-3-yl)-1-(2,2,2-trifluoroethyl)-1H-pyrazolo[3,4-d]pyrimidin-6-yl]phenyl}urea]",0.515 nM,1360 nM,191 nM,1 nM,5 nM,,,

# Now from value to compound, other results behind:
IC50 (Human mTOR (FLAG-TOR)),IC50 (PI3K [1]; [3]),IC50 (PI3K [2]; [4]),IC50 (prostate line LNCap; LNCaP),Compound,IC50 (breast line MDA468),IC50 (PI3K [1]),IC50 (PI3K [2]),IC50 (prostate line LNCap)
0.34 nM,> 10000 nM,1000 nM,< 1 nM,"O=C(Nc1ccc(-c2nc(N3CC4CCC(C3)O4)c3cnn(CC(F)(F)F)c3n2)cc1)Nc1ccc(N2CCOCC2)cc1 [Example 251, 1-(4-morpholin-4-ylphenyl)-3-{4-[4-(8-oxa-3-azabicyclo[3.2.1]oct-3-yl)-1-(2,2,2-trifluoroethyl)-1H-pyrazolo[3,4-d]pyrimidin-6-yl]phenyl}urea]",< 1 nM,,,
0.15 nM,780 nM,56 nM,1 nM,"O=C(Nc1ccc(CO)cc1)Nc1ccc(-c2nc(N3CC4CCC(C3)O4)c3cnn(CC(F)(F)F)c3n2)cc1 [Example 253, 1-[4-(hydroxymethyl)phenyl]-3-{4-[4-(8-oxa-3-azabicyclo[3.2.1]oct-3-yl)-1-(2,2,2-trifluoroethyl)-1H-pyrazolo[3,4-d]pyrimidin-6-yl]phenyl}urea]",< 1 nM,,,
1620 nM,12000 nM,9650 nM,6200 nM,"Nc1cccc(COC(=O)Nc2ccc(-c3nc(N4CC5CCC(C4)O5)c4cnn(CC(F)(F)F)c4n3)cc2)c1 [Example 254, 3-aminobenzyl {4-[4-(8-oxa-3-azabicyclo[3.2.1]oct-3-yl)-1-(2,2,2-trifluoroethyl)-1H-pyrazolo[3,4-d]pyrimidin-6-yl]phenyl}carbamate]",200 nM,,,
0.595 nM,730 nM,105 nM,6 nM,"O=C(Nc1ccc(-c2nc(N3CC4CCC(C3)O4)c3cnn(CC(F)(F)F)c3n2)cc1)Nc1cccc(CO)c1 [Example 255, 1-[3-(hydroxymethyl)phenyl]-3-{4-[4-(8-oxa-3-azabicyclo[3.2.1]oct-3-yl)-1-(2,2,2-trifluoroethyl)-1H-pyrazolo[3,4-d]pyrimidin-6-yl]phenyl}urea]",30 nM,,,
1.8 nM,4240 nM,344 nM,< 1 nM,"CN(C)c1cccc(NC(=O)Nc2ccc(-c3nc(N4CC5CCC(C4)O5)c4cnn(CC(F)(F)F)c4n3)cc2)c1 [Example 257, 1-[3-(dimethylamino)phenyl]-3-{4-[4-(8-oxa-3-azabicyclo[3.2.1]oct-3-yl)-1-(2,2,2-trifluoroethyl)-1H-pyrazolo[3,4-d]pyrimidin-6-yl]phenyl}urea]",3 nM,,,
0.111 nM,440 nM,98 nM,< 1 nM,"O=C(Nc1ccc(CCO)cc1)Nc1ccc(-c2nc(N3CC4CCC(C3)O4)c3cnn(CC(F)(F)F)c3n2)cc1 [Example 260, 1-[4-(2-hydroxyethyl)phenyl]-3-{4-[4-(8-oxa-3-azabicyclo[3.2.1]oct-3-yl)-1-(2,2,2-trifluoroethyl)-1H-pyrazolo[3,4-d]pyrimidin-6-yl]phenyl}urea]",< 1 nM,,,
0.215 nM,10400 nM,147 nM,< 1 nM,"O=C(Nc1ccc(OCCO)cc1)Nc1ccc(-c2nc(N3CC4CCC(C3)O4)c3cnn(CC(F)(F)F)c3n2)cc1 [Example 263, 1-[4-(2-hydroxyethoxy)phenyl]-3-{4-[4-(8-oxa-3-azabicyclo[3.2.1]oct-3-yl)-1-(2,2,2-trifluoroethyl)-1H-pyrazolo[3,4-d]pyrimidin-6-yl]phenyl}urea]",5 nM,,,
